Measured values reported in ChEMBL document CHEMBL1201862, “PubChem BioAssay data set” (2004).
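Assay format: 96-well plates, 48-hour exposure. GI50 is the concentration that inhibits growth by half.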 Calls of active or inactive are those of the source. Rule as the data show it: active = GI50 up to about 1.1 µM and inactive = higher. Peptide text beside a SMILES is read from it. * marks the point of attachment. Cbz = O=C(OCc1ccccc1)*; OBn = c1ccc(CO*)cc1

Assays:
Experiment in all cases: DTP human tumour cell line panel, 48 h
PC-3 = tested on: PC-3
U-251 = tested on: U-251
OVCAR-5 = tested on: OVCAR-5
RPMI-8226 = tested on: RPMI-8226
Malme-3M = tested on: Malme-3M
M14 = tested on: M14
UO-31 = tested on: UO-31
OVCAR-4 = tested on: OVCAR-4
SNB-75 = tested on: SNB-75
ACHN = tested on: ACHN
TK-10 = tested on: TK-10
NCI-H522 = tested on: NCI-H522
HCT-116 = tested on: HCT-116
SK-MEL-2 = tested on: SK-MEL-2
SF-539 = tested on: SF-539
OVCAR-8 = tested on: OVCAR-8
SW-620 = tested on: SW-620
MOLT-4 = tested on: MOLT-4
HT-29 = tested on: HT-29
HL-60 = tested on: HL-60

Structure (SMILES)	GI50 (PC-3)	GI50 (U-251)	GI50 (OVCAR-5)	GI50 (RPMI-8226)	GI50 (Malme-3M)	GI50 (M14)	GI50 (UO-31)	GI50 (OVCAR-4)	GI50 (SNB-75)	GI50 (ACHN)	GI50 (TK-10)	GI50 (NCI-H522)	GI50 (HCT-116)	GI50 (SK-MEL-2)	GI50 (SF-539)	GI50 (OVCAR-8)	GI50 (SW-620)	GI50 (MOLT-4)	GI50 (HT-29)	GI50 (HL-60)
N#CCC(=O)c1cc(OCc2cc(OCc3ccc(Br)cc3)cc(OCc3ccc(Br)cc3)c2)cc(OCc2cc(OCc3ccc(Br)cc3)cc(OCc3ccc(Br)cc3)c2)c1	> 100 µM (inactive)	> 100 µM (inactive)	> 100 µM (inactive)	> 100 µM (inactive)	> 100 µM (inactive)	> 100 µM (inactive)	> 100 µM (inactive)	> 100 µM (inactive)	> 100 µM (inactive)	> 100 µM (inactive)	> 100 µM (inactive)	> 100 µM (inactive)	> 100 µM (inactive)	> 100 µM (inactive)	–	–	–	–	–	–
CCOC(=O)C12C3CCC1C2C(=O)C3 (stereo unspecified)	> 100 µM (inactive)	> 100 µM (inactive)	> 100 µM (inactive)	> 100 µM (inactive)	> 100 µM (inactive)	> 100 µM (inactive)	> 100 µM (inactive)	> 100 µM (inactive)	> 100 µM (inactive)	> 100 µM (inactive)	> 100 µM (inactive)	> 100 µM (inactive)	> 100 µM (inactive)	> 100 µM (inactive)	> 100 µM (inactive)	> 100 µM (inactive)	> 100 µM (inactive)	> 100 µM (inactive)	> 100 µM (inactive)	–
CCOC(=O)c1nc2ccc(C(F)(F)F)cc2nc1Oc1cc(OC)cc(OC)c1	> 100 µM (inactive)	87.9 µM (inactive)	> 100 µM (inactive)	> 100 µM (inactive)	35.8 µM (inactive)	> 100 µM (inactive)	> 100 µM (inactive)	26.4 µM (inactive)	21.4 µM (inactive)	> 100 µM (inactive)	> 100 µM (inactive)	–	> 100 µM (inactive)	> 100 µM (inactive)	57.1 µM (inactive)	> 100 µM (inactive)	> 100 µM (inactive)	> 100 µM (inactive)	> 100 µM (inactive)	> 100 µM (inactive)
COc1ccc(OC)c2cc(Cc3ccc(N(C)C)cc3)c(=O)c(Cc3ccc(N(C)C)cc3)cc12	62.1 µM (inactive)	53.2 µM (inactive)	> 100 µM (inactive)	22.4 µM (inactive)	> 100 µM (inactive)	> 100 µM (inactive)	> 100 µM (inactive)	> 100 µM (inactive)	40.4 µM (inactive)	> 100 µM (inactive)	–	20.7 µM (inactive)	> 100 µM (inactive)	–	86.1 µM (inactive)	32.9 µM (inactive)	> 100 µM (inactive)	> 100 µM (inactive)	> 100 µM (inactive)	–
COc1ccc(/C=N/NC(=O)c2ccccc2Nc2ccccc2C(=O)N/N=C/c2ccc(OC)c(OC)c2)cc1OC	> 100 µM (inactive)	> 100 µM (inactive)	> 100 µM (inactive)	> 100 µM (inactive)	51.5 µM (inactive)	36.5 µM (inactive)	> 100 µM (inactive)	> 100 µM (inactive)	> 100 µM (inactive)	> 100 µM (inactive)	> 100 µM (inactive)	–	> 100 µM (inactive)	> 100 µM (inactive)	–	> 100 µM (inactive)	> 100 µM (inactive)	> 100 µM (inactive)	> 100 µM (inactive)	> 100 µM (inactive)
COC(=O)/C=C1/CCC(C)(C(=O)NS(=O)(=O)c2ccc(C)cc2)C1(C)C (stereo unspecified)	> 100 µM (inactive)	> 100 µM (inactive)	> 100 µM (inactive)	> 100 µM (inactive)	> 100 µM (inactive)	> 100 µM (inactive)	> 100 µM (inactive)	> 100 µM (inactive)	–	> 100 µM (inactive)	> 100 µM (inactive)	> 100 µM (inactive)	> 100 µM (inactive)	> 100 µM (inactive)	> 100 µM (inactive)	> 100 µM (inactive)	> 100 µM (inactive)	> 100 µM (inactive)	–	> 100 µM (inactive)
Cc1cc2c(C(C)C)c(O)c(O)c(/C=N/c3cc(C(F)(F)F)ccc3Cl)c2c(O)c1-c1c(C)cc2c(C(C)C)c(O)c(O)c(/C=N/c3cc(C(F)(F)F)ccc3Cl)c2c1O	35 µM (inactive)	19.3 µM (inactive)	77.3 µM (inactive)	50.7 µM (inactive)	32.8 µM (inactive)	75.3 µM (inactive)	30.2 µM (inactive)	–	–	24.9 µM (inactive)	60.7 µM (inactive)	21.5 µM (inactive)	74.8 µM (inactive)	35.3 µM (inactive)	58.6 µM (inactive)	44.5 µM (inactive)	58.2 µM (inactive)	–	32.5 µM (inactive)	26.9 µM (inactive)
CC(=O)Oc1ccc2c(c1)[nH]c1c3ccc(OC(C)=O)cc3oc(=O)c21	24.5 µM (inactive)	30.5 µM (inactive)	> 100 µM (inactive)	–	32.8 µM (inactive)	30.5 µM (inactive)	27.8 µM (inactive)	42.4 µM (inactive)	51.6 µM (inactive)	27 µM (inactive)	49.9 µM (inactive)	25.5 µM (inactive)	23.3 µM (inactive)	–	29.9 µM (inactive)	35.4 µM (inactive)	25 µM (inactive)	14.2 µM (inactive)	34.2 µM (inactive)	–
COC(=O)[C@]1(NC(=O)c2ccccc2)C[C@H]1C=O	> 100 µM (inactive)	> 100 µM (inactive)	> 100 µM (inactive)	> 100 µM (inactive)	> 100 µM (inactive)	> 100 µM (inactive)	> 100 µM (inactive)	> 100 µM (inactive)	> 42.9 µM (inactive)	> 100 µM (inactive)	> 100 µM (inactive)	> 61.1 µM (inactive)	> 100 µM (inactive)	> 100 µM (inactive)	> 100 µM (inactive)	> 100 µM (inactive)	> 100 µM (inactive)	> 64.7 µM (inactive)	> 100 µM (inactive)	–
CCOC(=O)/C=C(/C(=O)OCC)n1ccc(=O)n(Cc2cn(COCCOC(C)=O)nn2)c1=O	35.4 µM (inactive)	28 µM (inactive)	20.1 µM (inactive)	19.5 µM (inactive)	–	–	18 µM (inactive)	22.9 µM (inactive)	33 µM (inactive)	14.8 µM (inactive)	16.8 µM (inactive)	4.54 µM (inactive)	31.6 µM (inactive)	25.2 µM (inactive)	20.3 µM (inactive)	16.4 µM (inactive)	7.05 µM (inactive)	17.3 µM (inactive)	18.1 µM (inactive)	–
O=C1c2cc([N+](=O)[O-])ccc2NC2C(O)c3ccccc3N12 (stereo unspecified)	53 µM (inactive)	23.5 µM (inactive)	> 100 µM (inactive)	18.5 µM (inactive)	–	47.4 µM (inactive)	25.9 µM (inactive)	19.7 µM (inactive)	20.2 µM (inactive)	24.7 µM (inactive)	13.2 µM (inactive)	16.2 µM (inactive)	30.8 µM (inactive)	33.3 µM (inactive)	29.3 µM (inactive)	23.3 µM (inactive)	–	19.7 µM (inactive)	80.4 µM (inactive)	–
CC(C)(C)c1ccc2c(c1)C#Cc1cc(C(C)(C)C)ccc1OCCCO2	> 100 µM (inactive)	> 100 µM (inactive)	> 100 µM (inactive)	> 100 µM (inactive)	> 100 µM (inactive)	> 100 µM (inactive)	> 100 µM (inactive)	> 100 µM (inactive)	–	> 100 µM (inactive)	> 100 µM (inactive)	> 100 µM (inactive)	> 100 µM (inactive)	> 100 µM (inactive)	–	> 100 µM (inactive)	> 100 µM (inactive)	> 100 µM (inactive)	> 100 µM (inactive)	> 100 µM (inactive)
CCN(CC)c1ccc2cc(C(=O)Nc3ccc(C)cc3)c(=N)oc2c1	> 100 µM (inactive)	> 100 µM (inactive)	> 100 µM (inactive)	> 100 µM (inactive)	> 100 µM (inactive)	> 100 µM (inactive)	–	> 100 µM (inactive)	> 100 µM (inactive)	> 100 µM (inactive)	–	–	> 100 µM (inactive)	> 100 µM (inactive)	–	> 100 µM (inactive)	> 100 µM (inactive)	> 100 µM (inactive)	> 100 µM (inactive)	> 100 µM (inactive)
COC[C@@H](C[C@H]1O[C@@](O)([C@H](O)[C@@H]2C[C@H](OC)[C@@H](O)CC/C=C(C)/C=C/[C@@H](O[C@@H]3O[C@@H](C)[C@H](OC)[C@@H](O)[C@@H]3O)[C@H](C)/C=C(C)/C=C(C)/C=C(\C)C(=O)O2)[C@H](C)[C@@H](O)[C@H]1C)O[C@H]1C[C@](C)(O)[C@@H](O[C@H]2C[C@@H](OC)[C@H](O)[C@@H](C)O2)C(C)O1 (stereo partly specified)	0.0447 µM (active)	0.0628 µM (active)	> 100 µM (inactive)	86.5 µM (inactive)	–	> 100 µM (inactive)	> 100 µM (inactive)	41.3 µM (inactive)	–	96.4 µM (inactive)	> 100 µM (inactive)	0.0685 µM (active)	> 100 µM (inactive)	> 55 µM (inactive)	> 100 µM (inactive)	1.44 µM (inactive)	> 85.7 µM (inactive)	2.44 µM (inactive)	> 100 µM (inactive)	0.869 µM (active)
COC(=O)CNC(=O)C(C)NC(=O)C(CC(=O)OCc1ccccc1)NC(=O)OCc1ccccc1 (stereo not drawn) (Cbz-Asp(OBn)-Ala-Gly-OMe; configuration not given here)	24 µM (inactive)	47 µM (inactive)	39.4 µM (inactive)	39 µM (inactive)	45.2 µM (inactive)	> 100 µM (inactive)	19.1 µM (inactive)	–	72.1 µM (inactive)	–	20.5 µM (inactive)	34.3 µM (inactive)	30.6 µM (inactive)	65.5 µM (inactive)	70.8 µM (inactive)	81.8 µM (inactive)	35.7 µM (inactive)	13.7 µM (inactive)	65.5 µM (inactive)	–
